Data published in US9873702B2, “Heterocyclic compounds as biogenic amine transport modulators” (Southern Research Institute, priority 2014, dated 2018).
Where two headings read alike, the source gives them in different places.

Experiments:
[1] = target: norepinephrine transporter (NET) (Rattus norvegicus, UniProt Q9WTR4); assay: Norepinephrine reuptake ([^3H]norepinephrine uptake) inhibition in rat brain synaptosomes; conditions: for NE Uptake Emax (% I ± SD): maximal inhibition from dose-response fit
Procedure: Freshly removed whole brain minus cerebellum and caudate was homogenized in 10% ice-cold sucrose with 12 strokes of a hand-held Potter-Elvehjem homogenizer followed by centrifugation at 1000×g for 10 minutes. The supernatants were saved on ice and used immediately. Transporter activity at NET was assessed using 10 nM [^3H]norepinephrine. […] Uptake inhibition assays were conducted at 37° C. and were initiated by adding 100 μL of tissue to 900 μL assay buffer containing test drug and [^3H]norepinephrine. Test drugs were diluted in assay buffer containing 1 mg/mL bovine serum albumin. Nonspecific uptake was measured by incubating in the presence of 10 μM indatraline. The reactions were stopped after 10 minutes by rapid vacuum filtration with a cell harvester (BRANDEL) over GF/B filters (Whatman) presoaked in wash buffer maintained at 25° C. (10 mM Tris-HCl, pH 7.4/150 mM NaCl). Filters were rinsed with 6 mL wash buffer and retained tritium was quantified by a MicroBeta liquid scintillation counter (PerkinElmer) after overnight extraction in 0.6 mL of liquid scintillation cocktail (Cytoscint, ICN). The data from three experiments were pooled and fit to a dose-response curve equation (using Kaleidagraph), to yield an Emax and EC50 value.
The data from three experiments were pooled and fit to a dose-response curve equation (using KaleidaGraph; Synergy Software, Reading, Pa.) to yield an Emax and IC50 value.

DAT = target: T1, DAT (Rattus norvegicus, UniProt P23977); assay: Dopamine transporter binding, inhibition of [^3H]WIN35428 binding in rat caudate membranes; conditions: for EC50: read-out: WIN Binding EC50 (μM ± SD)
T1 construct: from tissue; host or cells: rat caudate membranes
Procedure: The ability of test drugs to inhibit [^3H]WIN35428 binding to DAT in rat caudate membranes was assessed as follows. For each experiment, caudates from four rat brains were suspended in 15 mL ice cold assay buffer (50 mM sodium phosphate pH 7.4) and homogenized using a polytron (setting 6, 20 sec). The homogenate was centrifuged at 30,000×g for 10 minutes at 4° C. The pellet was resuspended with vigorous vortexing in 15 mL fresh ice cold assay buffer, and the centrifugation was repeated. The pellet was resuspended in 15 mL fresh ice cold assay buffer with vigorous vortexing followed by six strokes with a glass-on-glass hand-held homogenizer and was diluted to a final volume of 235 mL in ice cold assay buffer. [^3H]WIN35428 was diluted to 10 nM in assay buffer that contained 25 μg/mL chymostatin, 25 μg/mL leupeptin, 0.1 mM EDTA, and 0.1 mM EGTA. Each assay tube contained 0.75 mL membrane preparation, 0.15 mL test drug diluted in assay buffer containing 1 mg/mL bovine serum albumin, and 0.1 mL [^3H]WIN35428 preparation (final concentration of 1 nM). Assays were initiated by the addition of membranes and were terminated after 2 hours at 25° C. by rapid vacuum filtration. Retained tritium was measured as described. The data from three experiments were pooled and fit to a dose-response curve equation (using Kaleidagraph), to yield an Emax and EC50 value.

[2] = target: T2, serotonin transporter (SERT) (Rattus norvegicus, UniProt P31652); assay: Serotonin reuptake ([^3H]serotonin uptake) inhibition in rat brain synaptosomes; format: biochemical
T2 construct: Freshly removed whole brain minus cerebellum and caudate was homogenized; from tissue; host or cells: rat whole brain minus cerebellum and caudate, synaptosomes

[3] = target: T3, dopamine transporter (DAT) (Rattus norvegicus, UniProt P23977); assay: Dopamine transporter-mediated [^3H]MPP^+ release, shift of D-amphetamine-induced release, rat caudate synaptosomes; format: biochemical; design: Freshly removed caudate was homogenized in 10% ice-cold sucrose; from tissue; host or cells: rat caudate synaptosomes; conditions: for Kb: apparent Ke from shift of D-amphetamine-induced [^3H]MPP^+ release, compound at the concentration of column 1, read-out: Ke App; for Apparent Kc: [3H]MPP+ release, Apparent Kc = [Blocker]/((EC50-2/EC50-1) − 1), negative when shifted EC50 is less than control
[4] = target: T3, dopamine transporter (DAT); assay: Dopamine reuptake ([^3H]dopamine uptake) inhibition in rat brain synaptosomes
[5] = rat brain synaptosomes, 10 nM [^3H]norepinephrine
[6] = read-out: NE Uptake EC50 (nM ± SD), rat brain synaptosomes, 10 nM [^3H]norepinephrine, 10 min, 37° C.
[7] = read-out: NET Uptake IC50, mean ± S.D., n = 3
[8] = 2 h, read-out: DAT Binding εmax
[9] = mean ± S.D., n = 3, read-out: SERT Uptake Emax
[10] = mean ± S.D., n = 3, read-out: SERT Uptake IC50
[11] = DAT Uptake IC50, [3H]DA uptake inhibition, mean ± S.D., n = 3
[12] = IC50 for DAT Uptake Inhibition, rounded value as listed in Table 10
[13] = read-out: Emax for DAT Uptake Inhibition
[14] = Emax of D-amphetamine for [^3H]MPP^+ release in presence of 250 nM test compound
[15] = Emax of D-amphetamine for [^3H]MPP^+ release in presence of 150 nM test compound

T3 sequence (P23977 whole entry): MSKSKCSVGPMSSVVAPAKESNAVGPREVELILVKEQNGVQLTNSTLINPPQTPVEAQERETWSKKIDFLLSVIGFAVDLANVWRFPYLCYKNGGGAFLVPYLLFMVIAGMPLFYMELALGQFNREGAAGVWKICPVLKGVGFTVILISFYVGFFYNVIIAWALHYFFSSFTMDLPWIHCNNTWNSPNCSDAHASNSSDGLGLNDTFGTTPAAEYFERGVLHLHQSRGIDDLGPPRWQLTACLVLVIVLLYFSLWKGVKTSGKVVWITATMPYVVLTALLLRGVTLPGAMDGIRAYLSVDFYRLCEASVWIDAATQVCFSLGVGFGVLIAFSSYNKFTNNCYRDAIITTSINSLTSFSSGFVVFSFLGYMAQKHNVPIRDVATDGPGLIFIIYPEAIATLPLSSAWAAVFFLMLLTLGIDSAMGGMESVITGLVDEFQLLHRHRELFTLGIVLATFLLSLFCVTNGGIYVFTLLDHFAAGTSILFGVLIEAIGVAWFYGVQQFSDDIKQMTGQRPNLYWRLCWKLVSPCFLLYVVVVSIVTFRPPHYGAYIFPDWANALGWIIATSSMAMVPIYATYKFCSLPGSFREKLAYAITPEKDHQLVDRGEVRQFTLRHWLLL
T1 sequence (P23977 whole entry): as above
T2 sequence (P31652 whole entry): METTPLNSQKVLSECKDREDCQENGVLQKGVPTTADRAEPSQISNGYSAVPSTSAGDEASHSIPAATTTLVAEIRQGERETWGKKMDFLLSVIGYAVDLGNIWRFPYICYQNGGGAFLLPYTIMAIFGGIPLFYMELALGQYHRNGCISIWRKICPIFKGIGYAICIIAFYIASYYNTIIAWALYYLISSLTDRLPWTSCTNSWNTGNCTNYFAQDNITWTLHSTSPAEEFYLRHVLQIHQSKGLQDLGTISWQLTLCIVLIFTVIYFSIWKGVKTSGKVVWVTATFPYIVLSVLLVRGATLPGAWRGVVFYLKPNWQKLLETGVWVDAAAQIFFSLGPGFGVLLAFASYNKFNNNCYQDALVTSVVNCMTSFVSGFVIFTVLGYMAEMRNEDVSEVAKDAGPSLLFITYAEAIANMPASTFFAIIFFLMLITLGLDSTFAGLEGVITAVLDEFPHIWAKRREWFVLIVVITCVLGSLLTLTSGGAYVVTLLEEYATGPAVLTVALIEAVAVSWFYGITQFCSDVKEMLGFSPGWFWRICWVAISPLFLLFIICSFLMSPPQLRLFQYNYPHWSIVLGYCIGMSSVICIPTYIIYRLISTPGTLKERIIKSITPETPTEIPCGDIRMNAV

| Compound | NE Uptake Emax (% I ± SD) [1, 5] [% I] | IC50 [1, 6] [nM] | EC50 (DAT) [µM] | Kb [3] [nM] | NET Uptake Emax ([1]; mean ± S.D., n = 3) [%] | IC50 [1, 7] [nM] | Emax (DAT; [8]) [%] | Emax [2, 9] [%] | IC50 [2, 10] [nM] | Apparent Kc [3] [nM] | IC50 [4, 11] [nM] | IC50 [4, 12] [nM] | Emax ([4]; read-out: DAT Uptake Emax) [%] | Emax [4, 13] [%] | D-Amphetamine Emax (% ± SD) [3, 14] [%] | D-Amphetamine Emax (% ± SD) [3, 15] [%] | also measured |
| --- | --- | --- | --- | --- | --- | --- | --- | --- | --- | --- | --- | --- | --- | --- | --- | --- | --- |
| c1ccc(C(Nc2nc(-c3ccc4[nH]ccc4c3)nc3ccccc23)c2ccccc2)cc1 [compound 13, N-Benzhydryl-2-(1H-indol-5-yl)quinazolin-4-amine] | 62 ± 5 | 5850 ± 1750 | 2.7 ± 0.3 | 25800 | – | – | – | – | – | – | – | – | – | – | – | – | Emax (DAT; read-out: WIN Binding Emax (% I ± SD)): 77 ± 2%; IC50 ([2]; rat brain synaptosomes, 5 nM [^3H]serotonin, 30 min, 25° C., read-out: 5HT Uptake EC50 (nM ± SD)): 6380 ± 2640 nM; Emax ([2]; rat brain synaptosomes, 5 nM [^3H]serotonin, maximal inhibition from dose-response fit, read-out: 5HT Uptake Emax (% I ± SD)): 56 ± 9%; D-Amphetamine Emax (% ± SD) ([3]; Emax of D-amphetamine for [^3H]MPP^+ release in presence of 5000 nM test compound): 96 ± 3%; IC50 ([4]; DA Uptake EC50 (nM ± SD), rat caudate synaptosomes, 5 nM [^3H]dopamine, 15 min, 25° C., three experiments pooled): 212 ± 49 nM; Emax ([4]; read-out: DA Uptake Emax (% I ± SD)): 71 ± 3% |
| CN(C)c1ncc(-c2nc(NCC(c3ccccc3)c3ccccc3)c3ccccc3n2)cn1 [compound 16, 2-(2-(Dimethylamino)pyrimidin-5-yl)-N-(2,2-diphenylethyl)quinazolin-4-amine] | 73 ± 4 | 181 ± 46 | 1.7 ± 0.2 | 1820 | 73 ± 4 | 181 ± 46 | 76 ± 2 | 55 ± 5 | 37 ± 18 | 1820 | 20 ± 1 | 20 | 73 ± 1 | 73 | – | – | D-Amphetamine Emax (% ± SD) ([3]; Emax of D-amphetamine for [^3H]MPP^+ release in presence of 500 nM test compound): 101 ± 3% |
| c1ccc(C(CNc2nc(-c3ccc4[nH]ccc4c3)nc3ccccc23)c2ccccc2)cc1 [compound 17, N-(2,2-Diphenylethyl)-2-(1H-indol-5-yl)quinazolin-4-amine] | 70 ± 3 | 290 ± 52 | 0.9 ± 0.2 | 456 | 70 ± 3 | 290 ± 52 | 87 ± 4 | 54 ± 2 | 68 ± 13 | 456 | 10 ± 1 | 10 | 74 ± 1 | 74 | 94 ± 2 | – | – |
| CN(C)c1ccc(-c2nc(NCC(c3ccccc3)c3ccccc3)c3ccccc3n2)cn1 [compound 69, 2-(6-(Dimethylamino)Pyridin-3-yl)-N-(2,2-Diphenylethyl)Quinazolin-4-Amine] | 71 ± 6 | 147 ± 63 | 1.2 ± 0.2 | 912 | 71 ± 6 | 147 ± 63 | 83 ± 3 | 51 ± 2 | 42 ± 12 | 912 | 7.3 ± 2.2 | 7 | 63 ± 3 | 63 | 99 ± 2 | – | – |
| c1ccc(C(CNc2nc(-c3cnc4nccn4c3)nc3ccccc23)c2ccccc2)cc1 [compound 89, N-(2,2-Diphenylethyl)-2-(Imidazo[1,2-A]Pyrimidin-6-yl)Quinazolin-4-Amine] | 69 ± 2 | 63 ± 9 | – | – | 69 ± 2 | 63 ± 9 | 18 ± 4 | 51 ± 1 | 4.7 ± 0.6 | -1070 | 2.1 ± 0.3 | 2 | 68 ± 1 | 68 | – | – | D-Amphetamine Emax (% ± SD) ([3]; Emax of D-amphetamine for [^3H]MPP^+ release in presence of 50 nM test compound): 102 ± 2% |
| c1ccc(C(CNc2nc(-c3cnc4nccn4c3)nc3ccccc23)C2CCCCC2)cc1 (centres unmarked) [compound 102, N-(2-Cyclohexyl-2-Phenylethyl)-2-(Imidazo[1,2-A]Pyrimidin-6-yl)Quinazolin-4-Amine] | 70 ± 2 | 95 ± 12 | – | 1600 | 70 ± 2 | 95 ± 12 | 43 ± 4 | 54 ± 1 | 23 ± 3 | 1600 | 6 ± 0.7 | 6 | 70 ± 1 | 70 | – | 104 ± 4 | – |
| c1ccc(C(CNc2nc(-c3ccc4ncnn4c3)nc3ccccc23)c2ccccc2)cc1 [compound 105, 2-([1,2,4]Triazolo[1,5-A]Pyridin-6-yl)-N-(2,2-Diphenylethyl)Quinazolin-4-Amine] | 40 ± 5 | 86 ± 55 | – | – | 40 ± 5 | 86 ± 55 | – | 35 ± 3 | 13 ± 6 | – | 8.8 ± 1.1 | 9 | 63 ± 1 | 63 | 105 ± 4 | – | DAT Binding εmax (DAT; inhibition of [3H]WIN35428 binding, mean ± S.D., n = 3): Inactive |
| c1ccc(C(CNc2nc(-c3cnc4nccn4c3)nc3ccccc23)c2ccncc2)cc1 (centres unmarked) [compound 110, 2-(Imidazo[1,2-A]Pyrimidin-6-yl)-N-(2-Phenyl-2-(Pyridin-4-yl)Ethyl)Quinazolin-4-Amine] | 69 ± 2 | 60 ± 10 | – | 1200 | 69 ± 2 | 60 ± 10 | 25 ± 2 | 51 ± 2 | 11 ± 3 | 1200 | 5.6 ± 0.8 | 6 | 64 ± 1 | 64 | – | 104 ± 5 | – |
| c1ccc(C(CNc2nc(-c3ccc4nccn4c3)nc3ccccc23)c2ccc[nH]2)cc1 (centres unmarked) [compound 117, 2-(Imidazo[1,2-A]Pyridin-6-yl)-N-(2-Phenyl-2-(1H-Pyrrol-2-yl)Ethyl)Quinazolin-4-Amine] | 81 ± 2 | 88 ± 15 | – | 1600 | 81 ± 2 | 88 ± 15 | 42 ± 3 | 56 ± 2 | 18 ± 4 | 1600 | 6.1 ± 1 | 6 | 64 ± 2 | 64 | – | 105 ± 4 | – |
